{
  "source": "patent US9795646B2",
  "about": "“Boswellia oil, its fractions and compositions for enhancing brain function” (LAILA NUTRACEUTICALS, priority 2010, dated 2017)",
  "type_in_all_cases": "cell-based",
  "key": {"[1]": {"biological_target": "T1, acetylcholine esterase (AChE) (Rattus norvegicus, UniProt P37136)", "T1 construct": "The cell extracts were used as samples for measuring the acetylcholine esterase (AChE) activity; endogenous in cells; host or cells: rat pheochromocytoma PC 12 cells, induced with β-amyloid peptide", "T1 sequence (P37136 32-614)": "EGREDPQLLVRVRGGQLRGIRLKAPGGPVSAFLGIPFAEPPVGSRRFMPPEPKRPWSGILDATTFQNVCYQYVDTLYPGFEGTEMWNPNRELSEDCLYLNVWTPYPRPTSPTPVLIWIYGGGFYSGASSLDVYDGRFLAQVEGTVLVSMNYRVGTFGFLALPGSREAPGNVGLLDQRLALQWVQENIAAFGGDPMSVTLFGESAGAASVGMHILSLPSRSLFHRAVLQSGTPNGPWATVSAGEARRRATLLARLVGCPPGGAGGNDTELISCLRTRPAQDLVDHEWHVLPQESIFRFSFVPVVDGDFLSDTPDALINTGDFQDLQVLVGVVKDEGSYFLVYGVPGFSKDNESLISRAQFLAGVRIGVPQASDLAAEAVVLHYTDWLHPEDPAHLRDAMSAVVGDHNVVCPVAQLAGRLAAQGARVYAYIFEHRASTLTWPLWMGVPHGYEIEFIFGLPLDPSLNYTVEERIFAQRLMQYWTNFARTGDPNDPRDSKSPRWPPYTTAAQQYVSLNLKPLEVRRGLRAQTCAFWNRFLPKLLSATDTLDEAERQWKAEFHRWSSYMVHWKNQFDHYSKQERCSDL", "assay": "Acetylcholine esterase inhibitory activity in β-amyloid peptide induced PC 12 cells", "conditions": "Beta Amyloid induced PC12 cells, Table 8", "protocol": "As a part of developing new agents for improving brain/mental function and alleviating disease conditions related to cognition and memory deficits, a large number of plant extracts have been screened for their inhibitory property on Acetylcholinesterase enzyme activity. The assay was performed in vitro by the method of Ellman et al., with minor modifications, using acetylthiocholine iodide as a substrate (Lee J. H., et. al. Arch Pharm Res 2004, 27(1): 53-56). […] Its acetylcholinesterase inhibitory activity was also evaluated by a cell based in vitro assay in Rat pheochromocytoma PC 12 cells. […] Rat pheochromocytoma PC 12 cells were equally distributed with phenol red free Dulbecco's modified Eagle's red medium (DMEM) (Sigma Life Science, USA) containing 10% fetal bovine serum (FBS) in 24-well plate. […] Thereafter, cells were induced with 1 μg/mL of β-amyloid peptide (Calbiochem, USA) for 24 h at 37° C. After 24 h, cells were collected and washed twice with 1×PBS by centrifugation at 1200 rpm for 5 min at 4° C. The cell extracts were prepared in solubilization buffer and the cell lysates were analyzed for acetylcholine esterase (AChE) activity.\nThe inhibitory property on the enzyme activity was assessed in β-amyloid peptide induced-rat pheochromocytoma PC 12 cells. Rat pheochromocytoma PC 12 cells were equally distributed with phenol red free Dulbecco's modified Eagle's red medium (DMEM) (Sigma Life Science, USA) containing 10% fetal bovine serum (FBS) in 24-well plate. […] Thereafter, cells were induced with 1 μg/mL of β-amyloid peptide (Calbiochem, USA) for 24 h at 37° C. After 24 h, cells were collected and washed twice with 1×PBS by centrifugation at 1200 rpm for 5 min at 4° C. Cell extracts were prepared in solubilization buffer (10 mM Tris, pH 7.2; 100 mM NaCl, 50 mM MgCl2, 1% Triton X-100). The cell extracts were used as samples for measuring the acetylcholine esterase (AChE) activity.\nCell extract samples (100 μl) were dispensed into each well of 96-well microtitre plate. Fifty micro liters of DTNB (Dithiobisnitro benzoate) solution was added to each well and incubated for 5 min at room temperature. After incubation, 50 μl of acetyl choline iodide solution was added to each well and absorbance was read immediately at 405 nm for 12 min at 2 min intervals. A standard curve was constructed by using serial concentrations of acetyl cholinesterase (0-100 mU). Total protein present in 100 μl aliquot of cell extract was calculated by Bradford method and the enzyme activity was normalized and expressed as unit activity per milligram of protein."}, "[2]": {"test_system": "IMR32 human neuroblastoma cells", "assay": "MTT cell proliferation assay, protection from oxidative stress induced cytotoxic damage", "conditions": "vehicle control 100.00, H2O2 alone 78.71", "protocol": "Briefly, IMR32 human neuroblastoma cells were cultivated in Dulbecco's modified Eagle's red medium (DMEM) (Sigma Life Science, USA) containing 10% fetal bovine serum (FBS). Equal number of IMR32 cells was seeded in to each well of 96 well microplate and incubated at 37° C. with 5% CO2. […] Control wells were supplemented with 0.05% DMSO. After 72 h of treatment, equal volume of MTT reagent (R&D Systems, USA) was added to each well and incubated for 4 h. Thereafter, 50 μl of solublization buffer (R&D Systems, USA) was added to each well to solubilize the colored formazan crystals produced by the reduction of MTT. After 24 h, the optical density was measured at 550 nm using microplate reader (Bio-Rad, USA). In each assay, the vehicle control and the treatments were done in quadruplicates. The average OD obtained in the vehicle control wells is considered as the cell proliferation index of 100."}, "[3]": {"test_system": "RAW 264.7 mouse macrophages", "assay": "Assay for measuring reactive oxygen species (ROS), DCFH-DA, H2O2", "conditions": "H2O2 treated RAW 264.7 cells", "protocol": "Formation of ROS was measured using of the fluorescent probe DCFH-DA. The method is based on the incubation of the RAW 264.7 mouse macrophages with DCFH-DA, which diffuses passively through the cellular membrane. Intracellular esterase activity results in the formation of DCFH, which emits fluorescence when oxidized to 20, 70-dichlorofluorescein (DCF). Briefly, the cells (final concentration 2×10^6/ml suspension) were incubated with DCFH-DA ([…]) in HEPES-buffered (20 mM) HBSS (CaCl2 1.26 mM, KCL 5.37 mM, KH2PO4 0.44 mM; MgCl2\n0.49 mM, MgSO4 0.41 mM, NaCl 140 mM, NaHCO3 4.17 mM, Na2HPO4 0.34 mM) with glucose (5 mM) at 37° C. for 15 min. Following centrifugation, the extracellular buffer with DCFH-DA was exchanged with fresh buffer and the suspension was mixed gently. […] Fluorescence was recorded using excitation wavelength 485 nm, emission wavelength 530 nm in a Modulus luminescence spectrometer (Turner Biosystems, USA) for 120 min. Results are calculated as area under the curve (AUC) and the percentage of inhibition of intracellular ROS generation was calculated from the cultures treated with H2O2."}},
  "data": [
    {"smiles": "COc1c(O)cc2oc3cc(O)c(CC=C(C)C)c(O)c3c(=O)c2c1CC=C(C)C", "note": "[α-mangostin]", "values": [
      {"measurement": "% inhibition in Acetylcholinesterase (AChE) activity", "setting": "[1]; 100 ng/ml", "result": 26.83, "unit": "%"},
      {"measurement": "% inhibition in Acetylcholinesterase (AChE) activity", "setting": "[1]; 250 ng/ml", "result": 29.48, "unit": "%"},
      {"measurement": "Cell proliferation Index", "setting": "[2]; 10 ng/ml with 250 uM H2O2, 72 h", "result": 80.32},
      {"measurement": "Cell proliferation Index", "setting": "[2]; 25 ng/ml with 250 uM H2O2, 72 h", "result": 86.78},
      {"measurement": "Cell proliferation Index", "setting": "[2]; 50 ng/ml with 250 uM H2O2, 72 h", "result": 87.21},
      {"measurement": "Cell proliferation Index", "setting": "[2]; 100 ng/ml with 250 uM H2O2, 72 h", "result": 91.78},
      {"measurement": "Inhibition of Reactive Oxygen Species (ROS) generation (IC50)", "setting": "[3]", "result": 49.817, "unit": "µg/mL"}
    ]}
  ]
}
